Laboratory results from US20170304386A1, “METHOD FOR INHIBITING SURVIVAL, TUMORIGENESIS AND METASTASIS OF CANCER CELLS AND/OR CANCER STEM CELLS” (priority 2014, published 2017).

Columns and labels:
[1] = test system: enriched TICs (HT29); assay: Tumourigenicity of enriched TICs (xenograft transplantation); type: in vivo, athymic nude mice; conditions: TICs directly treated with S3I-201 50 μM, or S3I-201 5 mg/kg intravenously post injection of TICs
Protocol: (§1) FIGS. 8a-8f show the suspension survival ability determines tumourigenicity and corresponds to clinical tumour staging and survival. […] FIGS. 8b and 8c show the culture-enriched TICs (SPH) of HT29 and ALDH^+ cells isolated from HCW primary liver metastasis cancer cells and fresh cancer cells were cultured in spheroid condition for 24 hours with treatment of STAT3 inhibitor (S3I-201, 50 μM) or 1:25 dilution of the 0.25 mg/ml anti-Col XVII antibody, followed by TUNEL assay. (Ab-1, Abcam; Ab-2, Pierce). […] FIG. 8e (top), representative pictures of positive staining of colorectal tumour tissues (different stages) are shown, FIG. 8e (bottom), quantification and the correlation between protein expression and tumour stages was subsequently determined. The results are expressed as percentage of DAB positive cells and every single plot represents a patient. The median is shown as a single black line. […] The expression of pS727STAT≧40% or Col XVII 50% was regarded as positive. Asterisks indicate significant differences determined by Fisher's exact test, one-way ANOVA, and log-rank test.
The protocols were approved by the Institutional Animal Committee of Taipei Veterans General Hospital. […] Tumour cells were injected subcutaneously (s.c.) and tumour growth was monitored every week for up to 3 months. […]

[2] = test system: culture-enriched TICs (SPH) of HT29 and ALDH+ cells isolated from HCW primary liver metastasis cancer cells and fresh cancer cells; assay: TUNEL assay of TICs cultured in spheroid (suspension) condition; type: cell-based, human; conditions: spheroid condition 24 hours; S3I-201 50 μM
Protocol: as §1, with “test. […]” for “test.”
Detection of apoptosis was performed (Roche Molecular Biochemicals, Indianapolis, Ind.). […] Immunofluorescence is observed with fluorescence microscope.

`Cc1ccc(S(=O)(=O)OCC(=O)Nc2ccc(C(=O)O)c(O)c2)cc1` [S3I-201] was tested, and the tumour initiation [1] was “inhibited tumour initiation” and the “killing of TICs in suspension culture (TUNEL assay)” value [2] was “killed TICs”.
